# Laboratory results published in the supplement of paper PMC10307832.
# Experiments:
# Experiment in all cases: relative viability (nuclei count vs DMSO), 5 days (fraction); higher = more cells survive
# NCI-H520 = tested on: NCI-H520
# Outline: (§1)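 Relative viability is defined as nuclei in treated wells over nuclei in vehicle wells. Duplicate plates were run and medians reported. Lung cancer cell lines in 1536-well plates were dosed by pin tool one day after seeding, with one drug or with a fixed anchor-drug dose plus five library-drug doses (not always all listed) in √10 steps, and nuclei were counted after 5 days.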
# COR-L23 = tested on: COR-L23
# Outline: as §1
# EPLC-272H = tested on: EPLC-272H
# Outline: as §1
# NCI-H1563 = tested on: NCI-H1563
# Outline: as §1
# LCLC-103H = tested on: LCLC-103H
# Outline: as §1
# SK-MES-1 = tested on: SK-MES-1
# Outline: as §1
# HCC-44 = tested on: HCC-44
# Outline: as §1
# HCC-827 = tested on: HCC-827
# Outline: as §1
# LU99A = tested on: LU99A
# Outline: as §1
# NCI-H2085 = tested on: NCI-H2085
# Outline: as §1
# NCI-H1944 = tested on: NCI-H1944
# Outline: as §1
# ChaGo-K-1 = tested on: ChaGo-K-1
# Outline: as §1
# EMC-BAC-2 = tested on: EMC-BAC-2
# Outline: as §1
# NCI-H1651 = tested on: NCI-H1651
# Outline: as §1
# NCI-H838 = tested on: NCI-H838
# Outline: as §1
# NCI-H2023 = tested on: NCI-H2023
# Outline: as §1
# NCI-H1395 = tested on: NCI-H1395
# Outline: as §1
# NCI-H1793 = tested on: NCI-H1793
# Outline: as §1
# H3255 = tested on: H3255
# Outline: as §1
# NCI-H650 = tested on: NCI-H650
# Outline: as §1
# NCI-H2087 = tested on: NCI-H2087
# Outline: as §1
# NCI-H2405 = tested on: NCI-H2405
# Outline: as §1
compound,measurement,setting,value
COc1nc(C)cnc1NS(=O)(=O)c1cccnc1-c1ccc(-c2nnco2)cc1 [Zibotentan] + COc1cccc2cc(-c3nc([C@H]4CC[C@H](C(=O)O)CC4)n4ncnc(N)c34)[nH]c12 [OSI-027] (partner 0.5 µM),relative viability,NCI-H520; first compound 0.08 µM,0.295
same,relative viability,NCI-H520; first compound 0.253 µM,0.24
same,relative viability,NCI-H520; first compound 0.8 µM,0.264
same,relative viability,NCI-H520; first compound 2.53 µM,0.31
same,relative viability,COR-L23; first compound 0.08 µM,0.713
same,relative viability,COR-L23; first compound 0.253 µM,0.651
same,relative viability,COR-L23; first compound 0.8 µM,0.789
same,relative viability,COR-L23; first compound 2.53 µM,0.798
same,relative viability,EPLC-272H; first compound 0.08 µM,0.328
same,relative viability,EPLC-272H; first compound 0.253 µM,0.287
same,relative viability,EPLC-272H; first compound 0.8 µM,0.269
same,relative viability,EPLC-272H; first compound 2.53 µM,0.301
same,relative viability,NCI-H1563; first compound 0.08 µM,0.767
same,relative viability,NCI-H1563; first compound 0.8 µM,0.761
same,relative viability,NCI-H1563; first compound 2.53 µM,0.77
same,relative viability,LCLC-103H; first compound 0.08 µM,0.453
same,relative viability,LCLC-103H; first compound 0.253 µM,0.467
same,relative viability,LCLC-103H; first compound 0.8 µM,0.451
same,relative viability,LCLC-103H; first compound 2.53 µM,0.465
same,relative viability,SK-MES-1; first compound 0.08 µM,0.595
same,relative viability,SK-MES-1; first compound 0.253 µM,0.228
same,relative viability,SK-MES-1; first compound 0.8 µM,0.555
same,relative viability,SK-MES-1; first compound 2.53 µM,0.702
same,relative viability,HCC-44; first compound 0.08 µM,0.585
same,relative viability,HCC-44; first compound 0.8 µM,0.621
same,relative viability,HCC-44; first compound 2.53 µM,0.558
same,relative viability,HCC-827; first compound 0.08 µM,0.826
same,relative viability,HCC-827; first compound 0.253 µM,0.836
same,relative viability,HCC-827; first compound 0.8 µM,0.754
same,relative viability,HCC-827; first compound 2.53 µM,0.767
same,relative viability,LU99A; first compound 0.08 µM,0.32
same,relative viability,LU99A; first compound 0.253 µM,0.302
same,relative viability,LU99A; first compound 0.8 µM,0.274
same,relative viability,LU99A; first compound 2.53 µM,0.338
same,relative viability,NCI-H2085; first compound 0.08 µM,0.78
same,relative viability,NCI-H2085; first compound 0.253 µM,0.727
same,relative viability,NCI-H2085; first compound 0.8 µM,0.442
same,relative viability,NCI-H2085; first compound 2.53 µM,0.832
same,relative viability,NCI-H1944; first compound 0.08 µM,0.439
same,relative viability,NCI-H1944; first compound 0.253 µM,0.393
same,relative viability,NCI-H1944; first compound 0.8 µM,0.427
same,relative viability,NCI-H1944; first compound 2.53 µM,0.465
same,relative viability,ChaGo-K-1; first compound 0.08 µM,0.547
same,relative viability,ChaGo-K-1; first compound 0.253 µM,0.579
same,relative viability,ChaGo-K-1; first compound 0.8 µM,0.583
same,relative viability,ChaGo-K-1; first compound 2.53 µM,0.604
same,relative viability,EMC-BAC-2; first compound 0.08 µM,0.376
same,relative viability,EMC-BAC-2; first compound 0.8 µM,0.381
same,relative viability,EMC-BAC-2; first compound 2.53 µM,0.414
same,relative viability,NCI-H1651; first compound 0.08 µM,0.694
same,relative viability,NCI-H1651; first compound 0.253 µM,0.641
same,relative viability,NCI-H1651; first compound 0.8 µM,0.701
same,relative viability,NCI-H1651; first compound 2.53 µM,0.72
same,relative viability,NCI-H838; first compound 0.08 µM,0.349
same,relative viability,NCI-H838; first compound 0.253 µM,0.366
same,relative viability,NCI-H838; first compound 0.8 µM,0.393
same,relative viability,NCI-H838; first compound 2.53 µM,0.389
same,relative viability,NCI-H2023; first compound 0.08 µM,0.475
same,relative viability,NCI-H2023; first compound 0.253 µM,0.228
same,relative viability,NCI-H2023; first compound 0.8 µM,0.371
same,relative viability,NCI-H2023; first compound 2.53 µM,0.476
same,relative viability,NCI-H1395; first compound 0.08 µM,0.727
same,relative viability,NCI-H1395; first compound 0.253 µM,0.633
same,relative viability,NCI-H1395; first compound 0.8 µM,0.577
same,relative viability,NCI-H1395; first compound 2.53 µM,0.7
same,relative viability,NCI-H1793; first compound 0.08 µM,0.351
same,relative viability,NCI-H1793; first compound 0.253 µM,0.284
same,relative viability,NCI-H1793; first compound 0.8 µM,0.224
same,relative viability,NCI-H1793; first compound 2.53 µM,0.254
same,relative viability,H3255; first compound 0.08 µM,0.536
same,relative viability,H3255; first compound 0.253 µM,0.542
same,relative viability,H3255; first compound 0.8 µM,0.576
same,relative viability,H3255; first compound 2.53 µM,0.526
same,relative viability,NCI-H650; first compound 0.08 µM,0.54
same,relative viability,NCI-H650; first compound 0.253 µM,0.509
same,relative viability,NCI-H650; first compound 0.8 µM,0.566
same,relative viability,NCI-H650; first compound 2.53 µM,0.649
same,relative viability,NCI-H2087; first compound 0.08 µM,0.506
same,relative viability,NCI-H2087; first compound 0.253 µM,0.506
same,relative viability,NCI-H2087; first compound 0.8 µM,0.613
same,relative viability,NCI-H2087; first compound 2.53 µM,0.632
same,relative viability,NCI-H2405; first compound 0.08 µM,0.694
same,relative viability,NCI-H2405; first compound 0.253 µM,0.657
same,relative viability,NCI-H2405; first compound 0.8 µM,0.663
same,relative viability,NCI-H2405; first compound 2.53 µM,0.627
